This is an account of results in ChEMBL document CHEMBL1201862, “PubChem BioAssay data set” (2004).

For experiment [1], the target named is T1, Rac GTPase-activating protein 1 (Homo sapiens, UniProt Q9H0H5).
T1 sequence (Q9H0H5 whole entry): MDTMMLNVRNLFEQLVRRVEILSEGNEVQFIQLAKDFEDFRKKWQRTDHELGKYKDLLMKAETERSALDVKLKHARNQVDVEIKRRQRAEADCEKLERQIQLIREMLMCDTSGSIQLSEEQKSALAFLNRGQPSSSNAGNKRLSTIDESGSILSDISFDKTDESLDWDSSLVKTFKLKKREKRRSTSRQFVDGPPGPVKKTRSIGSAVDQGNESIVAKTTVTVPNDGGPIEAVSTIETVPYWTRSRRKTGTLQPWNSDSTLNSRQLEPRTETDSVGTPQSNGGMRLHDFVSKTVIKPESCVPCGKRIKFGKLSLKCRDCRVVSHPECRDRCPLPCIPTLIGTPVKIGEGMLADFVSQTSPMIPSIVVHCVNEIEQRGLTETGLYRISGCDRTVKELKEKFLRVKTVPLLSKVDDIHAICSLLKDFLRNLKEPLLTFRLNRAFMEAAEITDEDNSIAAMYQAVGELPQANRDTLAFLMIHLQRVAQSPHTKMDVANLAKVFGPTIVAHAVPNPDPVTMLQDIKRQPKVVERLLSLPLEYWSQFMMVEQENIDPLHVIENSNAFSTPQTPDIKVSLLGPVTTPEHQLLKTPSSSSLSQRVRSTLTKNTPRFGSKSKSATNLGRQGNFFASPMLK
Nature of the experiment: blockers of MgcRacGAP-driven Rac1 GTP hydrolysis – biochemical, ADP Hunter fluorescence, primary and confirmatory, confirmation (AID 624330). The experiment is classed as functional.

Experiment [2] concerns the target T2, Aminopeptidase N (Plasmodium falciparum FcB1/Columbia, UniProt O96935).
T2 sequence (O96935 whole entry): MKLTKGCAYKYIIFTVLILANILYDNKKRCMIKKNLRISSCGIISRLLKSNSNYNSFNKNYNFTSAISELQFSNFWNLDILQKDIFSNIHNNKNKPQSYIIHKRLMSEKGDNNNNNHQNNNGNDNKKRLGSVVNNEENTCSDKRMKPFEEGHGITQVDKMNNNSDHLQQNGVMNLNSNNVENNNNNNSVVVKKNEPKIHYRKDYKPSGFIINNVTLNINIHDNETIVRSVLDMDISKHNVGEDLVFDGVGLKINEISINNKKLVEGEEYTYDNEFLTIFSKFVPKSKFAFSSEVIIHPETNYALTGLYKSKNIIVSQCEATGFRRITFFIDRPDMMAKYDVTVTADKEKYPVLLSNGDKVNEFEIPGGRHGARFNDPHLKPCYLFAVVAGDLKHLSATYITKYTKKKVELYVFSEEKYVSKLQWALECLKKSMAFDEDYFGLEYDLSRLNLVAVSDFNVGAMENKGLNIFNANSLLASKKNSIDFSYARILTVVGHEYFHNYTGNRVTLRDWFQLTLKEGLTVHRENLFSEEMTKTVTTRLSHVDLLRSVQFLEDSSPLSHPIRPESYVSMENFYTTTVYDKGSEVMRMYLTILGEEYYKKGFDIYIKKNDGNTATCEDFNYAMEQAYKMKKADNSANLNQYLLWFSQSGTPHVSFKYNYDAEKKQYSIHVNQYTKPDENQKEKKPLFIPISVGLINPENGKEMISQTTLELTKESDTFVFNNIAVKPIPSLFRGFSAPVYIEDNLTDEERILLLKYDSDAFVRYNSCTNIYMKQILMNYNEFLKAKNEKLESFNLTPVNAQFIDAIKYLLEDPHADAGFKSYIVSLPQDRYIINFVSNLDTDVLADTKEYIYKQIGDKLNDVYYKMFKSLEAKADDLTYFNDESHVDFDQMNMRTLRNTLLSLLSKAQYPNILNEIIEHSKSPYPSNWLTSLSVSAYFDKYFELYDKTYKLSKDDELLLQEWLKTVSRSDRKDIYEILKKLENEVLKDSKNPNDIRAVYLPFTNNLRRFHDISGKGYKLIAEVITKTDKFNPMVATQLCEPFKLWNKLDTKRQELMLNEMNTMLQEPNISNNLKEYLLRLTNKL
Nature of the experiment: malaria alanyl aminopeptidase activity blockers – biochemical, fluorogenic H-Leu-NHMec substrate, 1536-well (AID 1445). More on the design: species or system Plasmodium falciparum 3D7, 3D7.

The target in experiment [3] is 72 kDa type IV collagenase (Homo sapiens, UniProt P08253). The experiment can be described thus: Dose Response validation of uHTS RPN11 inhibitor hits using a MMP-2 Fluorescence assay. The format is functional.
The target of experiment [4] is Prothrombin (Bos taurus, UniProt P00735). Nature of the experiment: thrombin protease inhibitors – biochemical, fluorescence polarization, uHTS hits, dose response (AID 602369). The format is functional.
Experiment [5] has as its target 26S proteasome non-ATPase regulatory subunit 14 (Homo sapiens, UniProt O00487). The experiment can be described thus: inhibition of proteasome subunit RPN11 – biochemical, fluorescence polarization, uHTS hits, confirmation (AID 602368). The format is functional.
Experiment [6] is described as follows: rescue of ΔF508 CFTR function, airway epithelium – human bronchial epithelial cells, plate reader, cherry-pick, two tests, dose response (AID 743267). The experiment is classed as functional, cell-based.
For experiment [7], the target named is Casein kinase I isoform alpha (Homo sapiens, UniProt P48729). The format is functional.
Experiment [8] concerns the target Leukocyte tyrosine kinase receptor (Homo sapiens, UniProt P29376). The experiment can be described thus: Navigating the Kinome. Panel member name: LTK. The format is functional.
For experiment [9], the target named is Fibroblast growth factor receptor 1 (Homo sapiens, UniProt P11362). The experiment is classed as functional.
In experiment [10] the target is LIM domain kinase 1 (Homo sapiens, UniProt P53667). The experiment can be described thus: Navigating the Kinome. Panel member name: LIMK1. The experiment is classed as functional.
Experiment [11] has as its target Activated CDC42 kinase 1 (Homo sapiens, UniProt Q07912). The experiment can be described thus: Navigating the Kinome. Panel member name: ACK1. The experiment is classed as functional.
The target of experiment [12] is Platelet-derived growth factor receptor alpha (Homo sapiens, UniProt P16234). Nature of the experiment: Navigating the Kinome. Panel member name: PDGFRA. The format is functional.
Experiment [13] concerns the target Dual specificity protein kinase CLK4 (Homo sapiens, UniProt Q9HAZ1). The format is functional.
Experiment [14] deals with Vascular endothelial growth factor receptor 2 (Homo sapiens, UniProt P35968). The experiment is classed as functional.
Experiment [15] deals with Macrophage colony-stimulating factor 1 receptor (Homo sapiens, UniProt P07333). The experiment is classed as functional.
Experiment [16] deals with Mitogen-activated protein kinase 8 (Homo sapiens, UniProt P45983). The format is functional.
The target of experiment [17] is T3, Activin receptor type-1 (Homo sapiens, UniProt Q04771).
T3 sequence (Q04771 whole entry): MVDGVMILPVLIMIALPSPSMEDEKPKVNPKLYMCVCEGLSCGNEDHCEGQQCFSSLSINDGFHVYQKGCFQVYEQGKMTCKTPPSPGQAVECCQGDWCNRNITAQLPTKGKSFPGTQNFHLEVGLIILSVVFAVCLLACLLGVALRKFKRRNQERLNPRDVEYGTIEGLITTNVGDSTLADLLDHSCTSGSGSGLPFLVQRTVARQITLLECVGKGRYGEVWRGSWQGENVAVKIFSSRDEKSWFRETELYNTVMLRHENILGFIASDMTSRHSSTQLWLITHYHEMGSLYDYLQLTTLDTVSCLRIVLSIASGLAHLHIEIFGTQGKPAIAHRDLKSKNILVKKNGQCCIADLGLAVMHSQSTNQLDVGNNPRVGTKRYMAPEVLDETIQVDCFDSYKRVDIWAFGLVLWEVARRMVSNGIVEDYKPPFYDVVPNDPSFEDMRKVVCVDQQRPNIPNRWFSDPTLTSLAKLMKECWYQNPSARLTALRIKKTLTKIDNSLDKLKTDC
Nature of the experiment: Navigating the Kinome. Panel member name: ACVR1. The experiment is classed as functional.

In experiment [18] the target is Aurora kinase B (Homo sapiens, UniProt Q96GD4). The experiment is classed as functional.
For experiment [19], the target named is Mitogen-activated protein kinase kinase kinase kinase 4 (Homo sapiens, UniProt O95819). The experiment is classed as functional.
Experiment [20] has as its target Dual specificity tyrosine-phosphorylation-regulated kinase 1B (Homo sapiens, UniProt Q9Y463). The experiment can be described thus: Navigating the Kinome. Panel member name: DYRK1B. The experiment is classed as functional.
For experiment [21], the target named is Cyclin-dependent kinase 5 (Homo sapiens, UniProt Q00535). The format is functional.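 Further: CDK5 measured as one member of a kinase profiling panel.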
The target in experiment [22] is Mitogen-activated protein kinase 13 (Homo sapiens, UniProt O15264). The format is functional.
In experiment [23] the target is Leucine-rich repeat serine/threonine-protein kinase 2 (Homo sapiens, UniProt Q5S007). The experiment is classed as functional.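 Further: value from a broad kinome-wide panel profiling study in which LRRK2 was one of the kinases tested.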
Experiment [24] has as its target Focal adhesion kinase 1 (Homo sapiens, UniProt Q05397). The format is functional.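 Further: measured as one member of a kinome panel.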
The target in experiment [25] is cAMP-dependent protein kinase catalytic subunit PRKX (Homo sapiens, UniProt P51817). The experiment is classed as functional.
The target in experiment [26] is Dual specificity tyrosine-phosphorylation-regulated kinase 1A (Homo sapiens, UniProt Q13627). The format is functional.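 Further: measured against DYRK1A as one member of a broad kinome profiling panel.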
In experiment [27] the target is Death-associated protein kinase 3 (Homo sapiens, UniProt O43293). The format is functional.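 Further: measured as one member of a kinome-wide profiling panel.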
The target of experiment [28] is Tyrosine-protein kinase receptor TYRO3 (Homo sapiens, UniProt Q06418). The format is functional.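 Further: TYRO3 value obtained as one member of a kinome-wide profiling panel.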
The target in experiment [29] is Serine/threonine-protein kinase Chk1 (Homo sapiens, UniProt O14757). The format is functional.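 Further: measured as one member of a kinome-wide kinase profiling panel.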
The target in experiment [30] is Proto-oncogene tyrosine-protein kinase receptor Ret (Homo sapiens, UniProt P07949). The experiment is classed as functional.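 Further: measured within a kinome-wide profiling panel, RET as the panel member.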
Experiment [31] has as its target 5'-AMP-activated protein kinase catalytic subunit alpha-1 (Homo sapiens, UniProt Q13131). The experiment is classed as functional.
The target in experiment [32] is Cyclin-dependent kinase 8 (Homo sapiens, UniProt P49336). The experiment can be described thus: Navigating the Kinome. Panel member name: CDK8. The experiment is classed as functional.
Experiment [33] addresses Serine/threonine-protein kinase pim-1 (Homo sapiens, UniProt P11309). The experiment is classed as functional.

The source made the active and inactive calls. A value given as a limit tells only on which side of the number the result lay.

LIM domain kinase 1, sequence (P53667 whole entry, the tested form may be a part): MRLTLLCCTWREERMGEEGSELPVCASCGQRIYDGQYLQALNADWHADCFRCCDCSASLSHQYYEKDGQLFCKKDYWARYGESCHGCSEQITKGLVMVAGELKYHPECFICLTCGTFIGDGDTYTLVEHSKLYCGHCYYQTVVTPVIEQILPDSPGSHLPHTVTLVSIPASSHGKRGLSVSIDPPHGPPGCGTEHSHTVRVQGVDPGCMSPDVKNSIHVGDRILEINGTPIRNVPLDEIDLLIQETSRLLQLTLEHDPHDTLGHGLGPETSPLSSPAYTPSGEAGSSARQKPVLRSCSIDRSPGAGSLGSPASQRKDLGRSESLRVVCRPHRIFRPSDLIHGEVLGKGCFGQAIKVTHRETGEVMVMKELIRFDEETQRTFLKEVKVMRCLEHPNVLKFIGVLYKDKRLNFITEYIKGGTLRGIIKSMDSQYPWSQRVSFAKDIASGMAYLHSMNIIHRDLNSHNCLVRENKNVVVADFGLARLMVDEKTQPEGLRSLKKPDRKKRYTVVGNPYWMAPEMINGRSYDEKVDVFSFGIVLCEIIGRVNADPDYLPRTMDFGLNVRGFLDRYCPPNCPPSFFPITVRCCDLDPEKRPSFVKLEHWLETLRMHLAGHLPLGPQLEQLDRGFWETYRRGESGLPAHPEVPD
Cyclin-dependent kinase 5, sequence (Q00535 whole entry): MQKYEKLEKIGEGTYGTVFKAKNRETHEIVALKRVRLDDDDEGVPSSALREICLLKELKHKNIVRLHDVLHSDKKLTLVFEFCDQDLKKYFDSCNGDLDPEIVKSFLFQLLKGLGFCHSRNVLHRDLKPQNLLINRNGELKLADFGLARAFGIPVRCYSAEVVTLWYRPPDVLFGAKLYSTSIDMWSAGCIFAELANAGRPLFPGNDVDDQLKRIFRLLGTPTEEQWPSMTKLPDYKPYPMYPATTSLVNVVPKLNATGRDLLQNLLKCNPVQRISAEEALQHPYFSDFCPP
Casein kinase I isoform alpha, sequence (P48729 whole entry, canonical isoform): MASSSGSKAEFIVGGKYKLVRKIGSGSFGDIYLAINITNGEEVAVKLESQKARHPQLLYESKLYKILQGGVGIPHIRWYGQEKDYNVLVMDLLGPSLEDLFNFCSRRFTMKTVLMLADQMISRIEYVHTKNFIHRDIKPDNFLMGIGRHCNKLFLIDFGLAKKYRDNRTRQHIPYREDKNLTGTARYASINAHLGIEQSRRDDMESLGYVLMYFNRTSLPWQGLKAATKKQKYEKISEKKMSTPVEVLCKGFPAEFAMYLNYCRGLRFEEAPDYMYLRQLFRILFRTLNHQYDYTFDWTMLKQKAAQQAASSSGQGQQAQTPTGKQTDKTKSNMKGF
Dual specificity protein kinase CLK4, sequence (Q9HAZ1 whole entry): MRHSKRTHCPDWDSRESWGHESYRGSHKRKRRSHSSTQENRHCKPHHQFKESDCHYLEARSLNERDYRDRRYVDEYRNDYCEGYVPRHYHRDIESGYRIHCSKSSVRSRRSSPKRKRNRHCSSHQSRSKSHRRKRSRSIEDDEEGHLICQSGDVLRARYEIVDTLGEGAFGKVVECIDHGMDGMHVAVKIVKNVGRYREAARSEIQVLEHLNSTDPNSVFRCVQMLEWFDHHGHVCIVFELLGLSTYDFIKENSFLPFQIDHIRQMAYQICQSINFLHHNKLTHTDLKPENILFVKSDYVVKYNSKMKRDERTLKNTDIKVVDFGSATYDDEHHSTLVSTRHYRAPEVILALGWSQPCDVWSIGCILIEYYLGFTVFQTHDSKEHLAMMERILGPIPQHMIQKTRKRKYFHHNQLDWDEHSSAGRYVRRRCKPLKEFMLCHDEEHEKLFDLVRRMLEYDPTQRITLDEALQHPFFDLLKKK
Dual specificity tyrosine-phosphorylation-regulated kinase 1B, sequence (Q9Y463 whole entry): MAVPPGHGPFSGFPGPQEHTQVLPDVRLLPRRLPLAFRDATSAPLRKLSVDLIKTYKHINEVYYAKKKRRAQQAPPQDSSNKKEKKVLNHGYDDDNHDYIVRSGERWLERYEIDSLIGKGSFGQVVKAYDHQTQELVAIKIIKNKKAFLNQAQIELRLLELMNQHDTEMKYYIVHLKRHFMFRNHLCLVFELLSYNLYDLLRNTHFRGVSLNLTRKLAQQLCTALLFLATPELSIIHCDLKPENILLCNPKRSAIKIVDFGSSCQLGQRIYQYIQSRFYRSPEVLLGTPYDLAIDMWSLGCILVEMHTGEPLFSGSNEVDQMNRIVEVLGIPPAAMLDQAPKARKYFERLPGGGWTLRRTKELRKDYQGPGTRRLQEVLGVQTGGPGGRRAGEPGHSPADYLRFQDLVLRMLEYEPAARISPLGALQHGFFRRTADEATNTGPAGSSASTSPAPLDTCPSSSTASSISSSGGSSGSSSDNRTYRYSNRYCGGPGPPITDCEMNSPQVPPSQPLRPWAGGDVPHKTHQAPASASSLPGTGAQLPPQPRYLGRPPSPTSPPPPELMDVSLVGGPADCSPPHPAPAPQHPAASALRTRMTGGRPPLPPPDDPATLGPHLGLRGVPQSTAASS
Leukocyte tyrosine kinase receptor, sequence (P29376 whole entry): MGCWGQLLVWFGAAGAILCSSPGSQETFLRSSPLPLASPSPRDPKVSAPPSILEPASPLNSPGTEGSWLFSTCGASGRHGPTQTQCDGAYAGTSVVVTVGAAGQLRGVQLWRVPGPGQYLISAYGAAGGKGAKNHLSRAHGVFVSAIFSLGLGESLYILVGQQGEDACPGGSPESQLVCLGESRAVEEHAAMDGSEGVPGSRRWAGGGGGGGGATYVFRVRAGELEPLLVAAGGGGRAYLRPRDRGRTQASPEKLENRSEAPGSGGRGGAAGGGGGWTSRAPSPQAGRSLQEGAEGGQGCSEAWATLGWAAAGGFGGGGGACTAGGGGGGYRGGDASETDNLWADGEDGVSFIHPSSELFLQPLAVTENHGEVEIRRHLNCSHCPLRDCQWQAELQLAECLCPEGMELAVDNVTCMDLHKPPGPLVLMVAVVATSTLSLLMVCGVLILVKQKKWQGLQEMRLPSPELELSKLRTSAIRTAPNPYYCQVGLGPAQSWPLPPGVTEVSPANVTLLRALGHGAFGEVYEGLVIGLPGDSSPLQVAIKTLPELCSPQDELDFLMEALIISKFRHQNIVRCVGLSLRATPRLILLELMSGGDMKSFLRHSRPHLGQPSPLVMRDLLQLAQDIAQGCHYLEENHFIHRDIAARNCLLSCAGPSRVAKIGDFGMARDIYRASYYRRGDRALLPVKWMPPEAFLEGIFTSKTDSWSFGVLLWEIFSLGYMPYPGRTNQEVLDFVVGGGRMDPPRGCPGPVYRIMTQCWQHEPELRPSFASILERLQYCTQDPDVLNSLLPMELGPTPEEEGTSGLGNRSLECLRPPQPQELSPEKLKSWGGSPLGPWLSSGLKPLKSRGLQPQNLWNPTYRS
Cyclin-dependent kinase 8, sequence (P49336 whole entry): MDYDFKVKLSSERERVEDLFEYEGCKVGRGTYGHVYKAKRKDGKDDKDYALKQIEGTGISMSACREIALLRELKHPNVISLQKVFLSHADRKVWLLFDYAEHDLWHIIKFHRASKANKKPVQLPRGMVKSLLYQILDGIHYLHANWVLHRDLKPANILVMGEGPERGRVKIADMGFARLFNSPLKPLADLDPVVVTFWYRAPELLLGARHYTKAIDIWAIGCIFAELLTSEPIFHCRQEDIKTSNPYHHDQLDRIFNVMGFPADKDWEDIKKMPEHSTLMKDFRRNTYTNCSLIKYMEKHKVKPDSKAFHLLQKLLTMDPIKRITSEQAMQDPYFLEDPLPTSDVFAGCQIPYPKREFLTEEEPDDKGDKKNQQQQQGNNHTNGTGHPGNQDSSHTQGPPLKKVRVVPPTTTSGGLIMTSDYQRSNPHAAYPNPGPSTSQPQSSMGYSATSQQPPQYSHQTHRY
Proto-oncogene tyrosine-protein kinase receptor Ret, sequence (P07949 whole entry): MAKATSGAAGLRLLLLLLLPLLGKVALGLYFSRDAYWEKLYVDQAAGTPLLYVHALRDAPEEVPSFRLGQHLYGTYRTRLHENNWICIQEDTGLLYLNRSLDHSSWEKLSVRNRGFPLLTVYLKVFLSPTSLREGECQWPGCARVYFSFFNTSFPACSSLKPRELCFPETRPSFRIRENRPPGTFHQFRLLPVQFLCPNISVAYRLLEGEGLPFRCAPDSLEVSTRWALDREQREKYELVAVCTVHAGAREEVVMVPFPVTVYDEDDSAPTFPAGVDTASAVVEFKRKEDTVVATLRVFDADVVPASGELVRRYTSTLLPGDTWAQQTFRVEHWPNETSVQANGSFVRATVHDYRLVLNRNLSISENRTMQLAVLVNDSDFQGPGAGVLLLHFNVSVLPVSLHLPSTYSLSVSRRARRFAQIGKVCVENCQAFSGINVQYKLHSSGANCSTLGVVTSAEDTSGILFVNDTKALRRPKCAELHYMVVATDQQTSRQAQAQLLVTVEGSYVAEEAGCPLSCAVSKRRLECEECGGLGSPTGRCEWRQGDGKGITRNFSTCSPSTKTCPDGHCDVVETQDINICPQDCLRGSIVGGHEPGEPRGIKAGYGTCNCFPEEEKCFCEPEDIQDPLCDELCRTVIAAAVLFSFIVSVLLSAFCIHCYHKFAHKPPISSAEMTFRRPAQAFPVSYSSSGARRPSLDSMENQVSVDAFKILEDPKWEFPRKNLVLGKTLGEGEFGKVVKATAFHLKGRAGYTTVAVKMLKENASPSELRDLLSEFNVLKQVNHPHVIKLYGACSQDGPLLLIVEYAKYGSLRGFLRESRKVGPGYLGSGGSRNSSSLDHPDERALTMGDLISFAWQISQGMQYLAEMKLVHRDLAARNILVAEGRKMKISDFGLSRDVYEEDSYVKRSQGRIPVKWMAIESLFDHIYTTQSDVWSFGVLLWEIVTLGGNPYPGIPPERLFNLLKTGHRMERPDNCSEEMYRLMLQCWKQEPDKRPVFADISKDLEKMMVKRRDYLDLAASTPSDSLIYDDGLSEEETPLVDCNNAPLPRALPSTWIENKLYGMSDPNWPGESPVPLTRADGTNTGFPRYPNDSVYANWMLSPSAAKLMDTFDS

For `CCOc1cc(/C=C2\C(=N)N3N=C(S(=O)(=O)CC)SC3=NC2=O)ccc1O`, the IC50 was 79.6 µM (active) in experiment [1]; 55.7 µM (active) in [2]; > 100 µM (inactive) in experiment [3]; 34.8 µM (active) in experiment [4]; 28.6 µM (active) in [5]. Besides, in experiment [6], the AC50 is 24.9 µM (active).
As to `Nc1n[nH]c2c(-c3ccccc3)cccc12`, the Ki in experiment [7] was 39.8 µM (active); in [8] it was 50.1 µM (active); in experiment [9] it was 79.4 µM (active); in [10] it was 63.1 µM (active); in [11], 79.4 µM (active); in [12], 50.1 µM (active). For the same compound, the Ki was 79.4 µM (active) in experiment [13]; 50.1 µM (active) in experiment [14]; 63.1 µM (active) in experiment [15]; 15.8 µM (active) in experiment [16]; 79.4 µM (active) in experiment [17]; 79.4 µM (active) in experiment [18]. In addition, the Ki in experiment [19] was 25.1 µM (active); in experiment [20], 50.1 µM (active); in experiment [21], 50.1 µM (active).
For the compound `O=S(=O)(NCCNCC=Cc1ccc(Br)cc1)c1cccc2cnccc12`, the Ki in experiment [22] is > 7.94 µM (inactive).
As to `O=C1NS(=O)(=O)c2ccc(Cl)cc21`, the Ki was 50.1 µM (active) in [23]; 100 µM (active) in [7]; 31.6 µM (active) in experiment [8]; 79.4 µM (active) in experiment [24]; 63.1 µM (active) in experiment [25]; 25.1 µM (active) in experiment [10]. Also, the Ki in experiment [26] was 20 µM (active); in experiment [13], 63.1 µM (active); in [27], 31.6 µM (active); in [28], 20 µM (active); in experiment [17], 79.4 µM (active); in [29], 79.4 µM (active). Also, the Ki is 100 µM (active) in experiment [30]; 20 µM (active) in [20]; 50.1 µM (active) in [21]; 50.1 µM (active) in experiment [31]; 63.1 µM (active) in experiment [32]; 79.4 µM (active) in experiment [33].
